This test deals with CEM cells HIV-1 protection, formazan growth assay. Put plainly: NCI AIDS Antiviral Assay. The conditions noted are these: for IC50: measured here: growth of uninfected CEM cells. In short, it runs like this:
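Five concentrations of each compound were applied to infected and uninfected human CEM cells. Protection from HIV-1 was judged from growth measured with a soluble formazan assay.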

Active and inactive are the calls of the source.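 The calls were made as follows: active = compounds giving half or more protection of infected cells from virus-caused growth loss, again on retest; inactive = the rest.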 Bounds are passed on as bounds.

Consider `CCOC(=O)C(C)(C(=O)OCC)C1(c2ccccc2)OC(=O)c2ccccc21` (stereo not drawn), for which the result was inactive. The same measure, in the same setting: as for `O=C(Cc1ccccc1)N/N=C(/CCN1CCCC1)CC(c1ccccc1)c1c(O)c2ccccc2oc1=O` (stereo not drawn), the entry is “inactive”.

Consider `CNc1c(Cl)cccc1S(=O)(=O)c1ccccc1[N+](=O)[O-]`, for which the EC50 was 3.31 µM and the IC50 is more than 200 µM.

Regarding `CC(=O)N1C(NN(C)C)CCN1c1ccccc1` (stereo not drawn), the EC50 is more than 200 µM and the IC50 was found to be 32.4 µM. On the same counts, the results for `COC(=O)/C(=N\Nc1nnc(C)n1N)C(C#N)c1ccccc1` (stereo not drawn) are more than 575 µM and 93.3 µM. On to `Cc1ncc([N+](=O)[O-])n1CCNC(=O)CCn1ccnc1[N+](=O)[O-]`, for which the EC50 was more than 200 µM and the IC50 is more than 200 µM. Turning to `Cn1cnc([N+](=O)[O-])c1Sc1nc2ccccc2o1`, the EC50 was more than 26.3 µM and the IC50 was 2.75 µM.

In the case of `CCCCCCCCCCCCOP(=O)(O)OP(=O)(O)OCC1OC(n2cc(C)c(=O)[nH]c2=O)CC1O` (stereo not drawn), the EC50 was more than 200 µM and the IC50 amounted to 102 µM. Regarding `C=CCOCn1ccc(=O)[nH]c1=O`, the EC50 is more than 200 µM and the IC50 was more than 200 µM.

Regarding `CN1C(=O)[C@](O)(Cc2cccc(O)c2)N(C)C(=O)[C@@H]1Cc1c[nH]c2cccc([N+](=O)[O-])c12`, the result was inactive. Take `CC(=O)Oc1cc(/C=C(\C#N)C(=O)NCCCCCNC(=O)/C(C#N)=C/c2cc(OC(C)=O)c(OC(C)=O)c(OC(C)=O)c2)cc(OC(C)=O)c1OC(C)=O`: the EC50 is more than 200 µM and the IC50 stood at 27.5 µM. `COC(=O)NC(C(F)(F)F)(C(F)(F)F)P1(=O)OCCCO1`: the EC50 was more than 200 µM and the IC50 was 63.1 µM. The like results for `Cc1ccc([PH+](CC[PH+](c2ccccc2)c2ccccc2)c2ccc(C)cc2)cc1.Cc1ccc([PH+](CC[PH+](c2ccccc2)c2ccccc2)c2ccc(C)cc2)cc1.[Pt]` were, in that order, more than 6.92 µM and 3.8 µM. Turning to `O=C(N1CCCCC(Cl)(Cl)C1=O)C(Cl)(Cl)Cl`, the EC50 is more than 759 µM and the IC50 is more than 759 µM. On to `CSP(=S)(SC)SC(C)c1ccc(C)cc1` (stereo not drawn), for which the outcome was inactive.

On to `CC(C)=CCc1cc(C2CC(=O)c3c(O)cc(O)cc3O2)cc(CC=C(C)C)c1O` (stereo not drawn), for which the outcome was inactive. On to `C=C1C(=O)O[C@H]2C1C[C@@H](OC(C)=O)/C(C)=C/CC[C@@]1(C)O[C@H]21` (stereo partly drawn), for which the EC50 is more than 200 µM and the IC50 was 1.2 µM.

In the case of `O=[N+]([O-])c1ccc(NN=C(c2ccccc2)c2ccccc2)c([N+](=O)[O-])c1`, the EC50 is more than 52.5 µM and the IC50 was more than 52.5 µM. Turning to `NC(CCc1ncc(C(=O)O)s1)C(=O)O` (stereo not drawn), the outcome was inactive. In the case of `CSc1nc2nccnc2c(=O)[nH]1`, the EC50 was more than 1290 µM and the IC50 is more than 1290 µM. Regarding `CC(=N\N)/C(C)=N/N=C(C)/C(C)=N/N=C(C)/C(C)=N/N=C(C)/C(C)=N/N`, the EC50 is more than 200 µM and the IC50 amounted to 15.8 µM.

Consider `N#CC(NNC(=O)Cc1ccccc1)c1cccc(O)c1` (stereo not drawn), for which the EC50 was more than 468 µM and the IC50 is 158 µM.

Consider `O=C(CCC(=O)Nc1ccc(Cl)c(Cl)c1)Cc1nc2ccccc2o1`, for which the EC50 was more than 182 µM and the IC50 was more than 182 µM. `Cc1cc(O)c(/C=N/c2nc(-c3cccc([N+](=O)[O-])c3)cs2)c(=O)o1`: the EC50 was more than 200 µM and the IC50 is 35.5 µM. As to `CC1=C(C(=O)Nc2ccccc2)C(c2ccc(C3C(C(=O)Nc4ccccc4)=C(C)NC(C)=C3C(=O)Nc3ccccc3)cc2)C(C(=O)Nc2ccccc2)=C(C)N1`, the EC50 is more than 12.9 µM and the IC50 was 2.4 µM.

Turning to `C=CCOc1ccc(/C(N=Nc2ccc([N+](=O)[O-])cc2)=N/NC(=O)c2ccccc2)cc1OC`, the EC50 is more than 200 µM and the IC50 stood at 178 µM. On the same counts, the results for `CC/C(Cl)=N\OC(=O)Nc1ccc(OC)c(C)c1` are more than 20 µM and 15.8 µM. Turning to `COc1cc2cc3c4cc(OC)c(OC)cc4cc(C)[n+]3cc2cc1OC`, the result was inactive. On to `COc1c2ccoc2cc2oc(=O)ccc12`, for which the EC50 is more than 58.9 µM and the IC50 is more than 58.9 µM.

As for `CCc1c(-c2ccc(OC)cc2)oc(OC)c(C)c1=O`, the EC50 is more than 200 µM and the IC50 worked out at 40.7 µM. The like results for `C=C(c1ccccc1)[P+](c1ccccc1)(c1ccccc1)c1ccccc1` were, in that order, more than 20 µM and 0.219 µM. The like results for `CC12CC3CC(C)(C1)CC(SC(=N)N)(C3)C2` were, in that order, more than 776 µM and 38.9 µM.

As to `C[C@@H]1C[C@@H](O)[C@@]2(O)C13CC(=O)OC(C3)[C@@H](C)[C@@]2(C)CO` (stereo partly drawn), the EC50 was more than 200 µM and the IC50 was more than 200 µM. Turning to `O=C1Cc2cccc(=O)c(O)c2C(=O)O1`, the EC50 was more than 1200 µM and the IC50 was found to be 282 µM. On the same counts, the results for `CN(COC(=O)C(C)(C)C)c1nc(N(C)COC(=O)C(C)(C)C)nc(N(C)COC(=O)C(C)(C)C)n1` are more than 100 µM and 18.6 µM. On the same counts, the results for `CC(=O)NNC(=S)N/C=C\c1nc2ccccc2[nH]c1=O` are more than 200 µM and more than 200 µM. For the molecule `CC(C)(C)OC(=O)N[C@H]1CC2(C=C(Cl)C(=O)C(Cl)=C2)OC1=O`, the outcome was inactive. On to `COC(=O)C1=C(C(=O)[C@H](Cc2ccccc2)NC(=O)c2ccccc2)CCC1`, for which the EC50 was more than 95.5 µM and the IC50 was 89.1 µM. On the same counts, the results for `Cc1c(N=Nc2ccc(N(C)C)cc2)cc[n+]([O-])c1C` are more than 200 µM and more than 200 µM. On the same counts, the results for `CC/C(=N/OC(=O)N(CC)CC)c1ccccc1` are more than 200 µM and 117 µM. On the same counts, the results for `Cc1cc2occ(S(=O)(=O)NC(=O)Nc3ccc(Cl)cc3)c(=O)c2c(=O)o1` are more than 200 µM and 151 µM. Turning to `CSc1c(C(=O)Nc2ccc(C)cc2)c(N)nn1-c1ccccc1`, the EC50 was more than 200 µM and the IC50 was more than 200 µM. In the case of `CCOC(=O)CN1CCC(C2(c3cc4ccccc4[nH]3)OCCO2)CC1`, the EC50 is more than 363 µM and the IC50 was more than 363 µM. Turning to `COc1ccc(C(=O)c2ccc(OC)c(S(=O)(=O)N(C)C=O)c2)cc1S(=O)(=O)N(C)C=O`, the EC50 was more than 38.9 µM and the IC50 is more than 38.9 µM. Regarding `COc1cc(C(c2ccc3c(c2)OCO3)C2SCCCS2)cc(OC)c1OC` (stereo not drawn), the EC50 was more than 200 µM and the IC50 came to 0.871 µM.

Regarding `O=c1c(O)c(-c2ccc3c(c2)OCO3)oc2c(Cl)cc(Cl)cc12`, the EC50 was more than 100 µM and the IC50 is more than 100 µM.

As to `Nc1ncnc2oc(-c3cccs3)nc12`, the EC50 was more than 200 µM and the IC50 is more than 200 µM.

`O=S(=O)(OC(=C(c1ccccc1)c1ccccc1)c1ccccc1)C(F)(F)F`: the EC50 is more than 17.8 µM and the IC50 was more than 17.8 µM. As to `CC(=O)OC1=C(CC2CCCC2=O)C(=O)CC1` (stereo not drawn), the outcome was inactive. Regarding `CCOC(=O)N1CCN(c2ccc3c(C)cc(C)nc3n2)CC1`, the EC50 is more than 200 µM and the half-maximal inhibitory concentration (IC50) was more than 200 µM. For the molecule `CC12CC3(C)SC(C)(CC(C)(S1)S2)S3`, the outcome was inactive.

In the case of `CCN(CC)c1c(C(C)(C)C)c(=O)n2ccsc2c1OC(C)=O`, the EC50 is more than 200 µM and the IC50 came to 32.4 µM. With `Nc1ccc2c(SCc3ccc([N+](=O)[O-])cc3)c3ccccc3nc2c1`, the EC50 is more than 20 µM and the IC50 came out at 3.02 µM. On the same counts, the results for `NC1CC(=O)c2cc(Cl)sc21` (stereo not drawn) are more than 200 µM and more than 200 µM. On the same counts, the results for `CCOC(=O)C(=[N+]=[N-])C(=O)Nc1nn2nnnc2c2ccccc12` are more than 200 µM and more than 200 µM. On the same counts, the results for `Cc1cc(=O)oc2c3c(cc(OC(C)C)c12)O[C@H](C)[C@@H](C)C3=O` are more than 200 µM and 40.7 µM. On to `Cc1ccc(C(=O)C2C=C(c3ccc(C)cc3)SC3C=CCC32)cc1` (stereo not drawn), for which the EC50 is more than 200 µM and the IC50 turned out to be 14.8 µM.

Turning to `CC(C)CC(=O)[O-].N.N.N.N.N.[Co+3].[O-][Cl+3]([O-])([O-])[O-]`, the result was inactive. As to `COc1ccc(C2Oc3ccc(O)cc3[C@@H]2C)cc1OC` (stereo partly drawn), the EC50 was more than 174 µM and the IC50 is more than 174 µM.

In the case of `[N-]=[N+]=Nc1c(-c2ccccc2)c(=O)n(-c2ccccc2)c2ccccc12`, the outcome was inactive. Regarding `Cc1ccc(SC23C=CC(CC24CCOC4=O)OC3=O)cc1` (stereo not drawn), the EC50 is more than 200 µM and the IC50 was more than 200 µM. As for `CC(=O)Oc1ccc(Nn2c3ccccc3c3ccccc32)c(C)c1`, the EC50 is more than 200 µM and the IC50 worked out at 11.7 µM. The like results for `CC(C)(C)C(=O)O/C=C\OC1CCCC1(c1ccccc1)c1ccccc1` (stereo not drawn) were, in that order, more than 200 µM and 9.55 µM. With `CC1=C(O)C(=O)C2C(=O)C1C(C)C2c1ccccc1` (stereo not drawn), the EC50 was more than 195 µM and the 50% inhibitory concentration (IC50) is more than 195 µM.

Take `CCCCCCCCCCCCOc1ccc(/C(=N\N=C(N)N)c2ccccc2)c(O)c1`: the EC50 is more than 200 µM and the IC50 is more than 200 µM. As to `O=C1C=CC(=CC=C2C=CN(CCCCCCCCCCC(=O)NCCCCCCCCCCCC(=O)O)C=C2)C=C1`, the outcome was inactive.

Consider `Cc1nc(C)c(N2CCN([N+](=O)[O-])CC2)c(=O)[nH]1`, for which the EC50 was more than 200 µM and the IC50 was more than 200 µM.

Consider `CC(=O)Nc1ccc(C(=O)NN2C(=O)CSC2c2ccc(O)cc2)cc1` (stereo not drawn), for which the EC50 is more than 36.3 µM and the IC50 is more than 36.3 µM. For the molecule `Cc1ccc(NC(=O)CCc2cc(C(C)(C)C)nc(=S)[nH]2)cc1C`, the EC50 was more than 724 µM and the IC50 came out at 398 µM. On the same counts, the results for `O=C(NNc1nc(-c2ccccc2)cs1)C(F)(F)F` are more than 200 µM and 44.7 µM. On the same counts, the results for `CN1C(=O)NC2(C1=O)C(=O)N(C)C(=O)N2C` (stereo not drawn) are more than 1100 µM and more than 1100 µM. On to `CSC1=N/C(=C\c2ccc(C)cc2)C(=O)N1CN1CCCCC1`, for which the EC50 is more than 200 µM and the IC50 was more than 200 µM. Regarding `CC1(CO)CCCC2(C)C1CCC1CC3C=CC12C1C(=O)OC(=O)C31` (stereo not drawn), the EC50 is more than 200 µM and the IC50 was 83.2 µM.
